Measured values reported in ChEMBL document CHEMBL1201862, “PubChem BioAssay data set” (2004).
Calls of active or inactive are those of the source.

Test system: H4
Assay: Luminescence Cell-Based Dose Response HTS to Identify Activators of 5'UTR Stem-Loop Driven Prion Protein mRNA Translation in H4 Neuroglioblastoma Cells. [Related pubchem assays: 1829 (Project Summary), 1814 (Primary HTS)]
Format: functional
Details: Homo sapiens
For O=C(Nc1ccc(-c2cn3ccsc3n2)cc1)C1CC1, the EC50 was 4.21 µM (active).
For CC(=O)c1cccc(NC(=O)C(=O)Nc2cccc3ccccc23)c1, the EC50 was 10.7 µM (active).

Target: T1, Protein RecA (Mycobacterium tuberculosis, UniProt P9WHJ3)
T1 sequence (P9WHJ3 whole entry): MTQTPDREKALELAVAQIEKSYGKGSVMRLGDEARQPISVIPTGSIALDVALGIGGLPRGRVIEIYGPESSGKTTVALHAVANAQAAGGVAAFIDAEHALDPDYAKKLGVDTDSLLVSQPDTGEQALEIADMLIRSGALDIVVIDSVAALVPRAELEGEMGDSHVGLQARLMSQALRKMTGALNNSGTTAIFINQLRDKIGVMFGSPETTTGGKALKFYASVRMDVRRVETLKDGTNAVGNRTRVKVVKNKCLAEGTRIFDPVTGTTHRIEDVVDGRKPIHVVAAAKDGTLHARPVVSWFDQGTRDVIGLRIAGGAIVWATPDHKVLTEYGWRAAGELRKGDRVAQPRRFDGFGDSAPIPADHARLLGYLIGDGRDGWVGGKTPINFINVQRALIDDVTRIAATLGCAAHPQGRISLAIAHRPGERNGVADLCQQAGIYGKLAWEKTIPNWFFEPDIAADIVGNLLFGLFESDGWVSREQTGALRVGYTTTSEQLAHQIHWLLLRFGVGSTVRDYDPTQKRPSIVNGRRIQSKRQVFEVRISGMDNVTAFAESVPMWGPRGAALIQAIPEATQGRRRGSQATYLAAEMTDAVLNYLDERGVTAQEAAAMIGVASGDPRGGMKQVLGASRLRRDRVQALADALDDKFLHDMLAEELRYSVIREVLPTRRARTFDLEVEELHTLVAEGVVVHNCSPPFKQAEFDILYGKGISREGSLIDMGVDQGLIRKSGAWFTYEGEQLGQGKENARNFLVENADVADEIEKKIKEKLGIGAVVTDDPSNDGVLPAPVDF
Assay: Fluorescence Cell-Free Homogeneous Dose Retest to Identify Inhibitors of RecA-Intein Splicing Activity. [Related pubchem assays (depositor defined):AID2097, AID2223, AID489010, AID492950]
Format: functional
Details: not given
For Cc1ccc(NC(=O)C(CC(C)C)NC(N)=O)cc1 (configuration not stated), the EC50 was > 380 µM (inactive).
In the case of Cc1nc2ccccc2c2c1C(=O)NC2=O, the EC50 was 3.72 µM (active).
For COc1cc(Cc2nccc3cc(OC)c(OC)cc23)c(S(=O)(=O)O)cc1OC, the EC50 was 85.7 µM (active).
With O=C1C(Cl)=C(N2CCOCC2)C(=O)N1c1ccccc1F the EC50 was 2.47 µM (active).
For C/C(=N/NC(=O)Cc1cc(O)[nH]n1)c1ccc([N+](=O)[O-])cc1, the EC50 was 1.38 µM (active).
With CCOC(=O)C(CC)Sc1ncnc2c1nnn2-c1ccc(F)cc1 (configuration not stated) the EC50 was 26.7 µM (active).
With CCCCn1[nH]c(-c2ccccc2)cc1=O the EC50 was 1.05 µM (active).
In the case of CC1Nc2ncnc(N3CCc4ccccc4C3)c2N(Cc2ccc(Br)cc2)C1=O (configuration not stated), the EC50 was 23.7 µM (active).

Test system: not listed separately
Assay: Luminescence Cell-Based Dose Response HTS to Identify Activators of Luciferase Translation or Activity in H4 […] Cells. [Related pubchem assays: 1829 (Project Summary), 1814 (Primary HTS)]
Format: functional
Details: not given
With O=C(Nc1ccc(-c2cn3ccsc3n2)cc1)C1CC1 the EC50 was 0.487 µM (active).
With CC(=O)c1cccc(NC(=O)C(=O)Nc2cccc3ccccc23)c1 the EC50 was 13.3 µM (active).

Target: T2, Replicative DNA helicase DnaB (Mycobacterium tuberculosis, UniProt P9WMR3)
T2 sequence (P9WMR3 whole entry): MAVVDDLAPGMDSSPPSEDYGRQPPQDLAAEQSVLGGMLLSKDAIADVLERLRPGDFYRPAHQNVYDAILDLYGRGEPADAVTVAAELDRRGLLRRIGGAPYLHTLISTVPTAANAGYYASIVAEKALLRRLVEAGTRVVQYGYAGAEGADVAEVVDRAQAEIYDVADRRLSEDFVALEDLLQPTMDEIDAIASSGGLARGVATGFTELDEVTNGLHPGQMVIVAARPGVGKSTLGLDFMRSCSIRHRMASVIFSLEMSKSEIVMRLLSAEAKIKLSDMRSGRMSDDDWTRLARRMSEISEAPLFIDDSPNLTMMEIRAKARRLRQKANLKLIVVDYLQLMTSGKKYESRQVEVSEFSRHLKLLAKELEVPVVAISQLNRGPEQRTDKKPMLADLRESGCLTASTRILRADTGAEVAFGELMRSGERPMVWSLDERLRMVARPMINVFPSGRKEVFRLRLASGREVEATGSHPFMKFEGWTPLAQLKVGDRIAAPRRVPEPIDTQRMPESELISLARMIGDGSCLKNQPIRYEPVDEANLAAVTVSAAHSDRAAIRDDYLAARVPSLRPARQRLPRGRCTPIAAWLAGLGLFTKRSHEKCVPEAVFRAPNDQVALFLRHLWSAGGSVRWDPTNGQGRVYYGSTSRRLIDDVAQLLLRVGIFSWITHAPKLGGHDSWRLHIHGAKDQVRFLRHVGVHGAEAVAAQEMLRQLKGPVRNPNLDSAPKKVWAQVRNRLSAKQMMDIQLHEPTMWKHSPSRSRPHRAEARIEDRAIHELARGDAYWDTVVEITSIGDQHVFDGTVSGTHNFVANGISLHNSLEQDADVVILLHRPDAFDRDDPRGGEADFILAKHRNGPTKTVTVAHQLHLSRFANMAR
Assay: DnaB intein splicing inhibitors, dose response, biochemical, cell-free fluorescence (AID 449749)
Format: functional
Details: not given
In the case of Cc1ccc(NC(=O)C(CC(C)C)NC(N)=O)cc1 (configuration not stated), the AC50 was > 380 µM (inactive).
With Cc1nc2ccccc2c2c1C(=O)NC2=O the AC50 was 76.5 µM (active).
In the case of COc1cc(Cc2nccc3cc(OC)c(OC)cc23)c(S(=O)(=O)O)cc1OC, the AC50 was 161 µM (active).
In the case of O=C1C(Cl)=C(N2CCOCC2)C(=O)N1c1ccccc1F, the AC50 was 10.8 µM (active).
For C/C(=N/NC(=O)Cc1cc(O)[nH]n1)c1ccc([N+](=O)[O-])cc1, the AC50 was 2.51 µM (active).
With CCOC(=O)C(CC)Sc1ncnc2c1nnn2-c1ccc(F)cc1 (configuration not stated) the AC50 was 0.908 µM (active).
With CCCCn1[nH]c(-c2ccccc2)cc1=O the AC50 was 2.96 µM (active).
With CC1Nc2ncnc(N3CCc4ccccc4C3)c2N(Cc2ccc(Br)cc2)C1=O (configuration not stated) the AC50 was > 380 µM (inactive).

Test system: not listed separately
Assay: non-specific 3'UTR reporter inhibition in Clone20-Shn3RL – cell-based, Renilla luciferase, cherry-picked, counter-screen for Shn3 inhibitor project, dose response (AID 624133)
Format: functional
Details: not given
With COc1c(C)cc(C(=O)C2CCCN(C(=O)c3cccc(-n4cccn4)c3)C2)cc1C (configuration not stated) the AC50 was > 70 µM (inactive).

Target: Cytochrome P450 2D6 (Homo sapiens, UniProt P10635);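 note: CYP2D6 member of a cytochrome P450 panel assay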
Sequence (P10635 whole entry): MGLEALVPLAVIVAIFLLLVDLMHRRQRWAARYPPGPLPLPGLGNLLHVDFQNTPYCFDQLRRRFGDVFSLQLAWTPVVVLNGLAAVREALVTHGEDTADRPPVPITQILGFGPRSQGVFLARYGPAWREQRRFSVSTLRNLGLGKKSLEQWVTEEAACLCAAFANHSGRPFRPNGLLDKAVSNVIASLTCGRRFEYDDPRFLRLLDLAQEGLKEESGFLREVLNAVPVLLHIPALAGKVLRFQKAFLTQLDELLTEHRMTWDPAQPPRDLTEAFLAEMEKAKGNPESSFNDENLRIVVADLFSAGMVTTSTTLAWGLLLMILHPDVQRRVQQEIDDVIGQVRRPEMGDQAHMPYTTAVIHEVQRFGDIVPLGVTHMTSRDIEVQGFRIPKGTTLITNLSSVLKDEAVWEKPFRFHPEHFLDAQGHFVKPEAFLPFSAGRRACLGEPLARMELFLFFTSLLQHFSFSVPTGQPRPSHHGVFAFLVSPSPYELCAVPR
Assay: not given
Details: not given
For CN(C)Cc1ccccc1-c1cc(NCc2ccccc2)ncn1, the AC50 was 15.8 µM (inconclusive).
In the case of FC(F)(F)c1ccccc1-c1cc(NCc2cccs2)ncn1, the AC50 was 25.1 µM (inconclusive).
With O=C(Cn1nc(C(F)F)cc1C(F)F)N/N=C/c1ccc2c(c1)OCO2 the AC50 was 2.82 µM (inconclusive).
In the case of COc1ccc2[nH]cc(CCNc3ncnc4ccc(-c5cccc(C#N)c5)cc34)c2c1, the AC50 was 3.16 µM (inconclusive).
For O=C(Nc1ccccc1)N1CCC2(CCNCC2)CC1, the AC50 was 25.1 µM (inconclusive).
For Cc1cccc(CNc2cc(-c3cccc(C#N)c3)ncn2)c1, the AC50 was 25.1 µM (inconclusive).
